# Entries after “also recorded” stand apart in the source; their conditions may differ.
# Tests used:
# SARS-CoV-2 = assay: Infection of Huh7.5 cells by replication competent SARS-CoV-2, qRT-PCR; type: cell-based; settings: 10 μM, 24 hours post inoculation, FIG. 3
# Description: FIG. 3 illustrates the finding that only certain Sigma1 inhibitors block SARS-CoV-2 infection. […] Results can be compared to vehicle (DMSO), Remdesivir (Rem, 10 μM), and hydroxychloroquine (HCQ, 10 μM). Compounds and SARS-CoV-2 were added to cell culture; 24 hours post inoculation relative infection calculated by qRT-PCR.
# A discrete set of Sigma1 modulators was tested in an assay of replication competent SARS-CoV-2 infectivity. […] Strikingly, IPAG, CT189, and CT1107 blocked SARS-CoV-2 infection by 1,000 (IPAG, CT189, CT360) to 10,000 (CT1107) fold.
# Androgen Receptor = molecular target: T1, Androgen Receptor (Homo sapiens, UniProt P10275)
# T1 sequence (P10275 1-920): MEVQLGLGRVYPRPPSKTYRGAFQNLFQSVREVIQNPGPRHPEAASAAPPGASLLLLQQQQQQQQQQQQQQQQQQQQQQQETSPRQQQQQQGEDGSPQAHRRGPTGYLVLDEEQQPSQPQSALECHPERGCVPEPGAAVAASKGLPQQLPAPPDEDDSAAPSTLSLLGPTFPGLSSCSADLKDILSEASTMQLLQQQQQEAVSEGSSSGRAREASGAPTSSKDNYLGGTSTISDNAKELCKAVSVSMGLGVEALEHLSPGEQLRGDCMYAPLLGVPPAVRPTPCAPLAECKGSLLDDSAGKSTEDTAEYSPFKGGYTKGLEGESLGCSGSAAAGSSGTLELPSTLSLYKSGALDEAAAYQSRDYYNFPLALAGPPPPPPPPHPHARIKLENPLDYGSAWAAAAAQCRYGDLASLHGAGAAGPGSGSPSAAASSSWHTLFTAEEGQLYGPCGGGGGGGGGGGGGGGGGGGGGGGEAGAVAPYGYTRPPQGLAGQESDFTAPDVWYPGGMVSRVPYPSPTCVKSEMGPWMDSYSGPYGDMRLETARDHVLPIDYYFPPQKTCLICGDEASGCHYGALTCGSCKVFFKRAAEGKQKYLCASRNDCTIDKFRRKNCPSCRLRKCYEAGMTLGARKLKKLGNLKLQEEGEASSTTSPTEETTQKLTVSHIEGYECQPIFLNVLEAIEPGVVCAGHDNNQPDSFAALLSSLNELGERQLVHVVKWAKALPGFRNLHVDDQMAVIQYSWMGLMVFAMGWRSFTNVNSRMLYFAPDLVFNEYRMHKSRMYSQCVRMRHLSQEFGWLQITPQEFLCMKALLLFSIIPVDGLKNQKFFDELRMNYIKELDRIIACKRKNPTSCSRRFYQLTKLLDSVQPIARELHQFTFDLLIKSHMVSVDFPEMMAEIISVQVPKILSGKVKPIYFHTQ
# TMPRSS2 mRNA transcript = assay: TMPRSS2 transcript levels in LNCaP cells; settings: 10 μM, FIG. 1B
smiles,measurement,setting,value
"N=C(Nc1ccc(I)cc1)NC1C2CC3CC(C2)CC1C3 (stereo not shown) [IPAG, reference compound]","blocked SARS-CoV-2 infection, fold",SARS-CoV-2,"1,000 fold"
same,effect on SARS-CoV-2 infection (in words),SARS-CoV-2,suppressed SARS-CoV-2 infection; also recorded: inhibit SARS-CoV-2 infection
same,dihydrotesterone (DHT) induced AR transcriptional activity,Androgen Receptor,inhibition
same,TMPRSS2 transcript,TMPRSS2 mRNA transcript,decreased

# Reference: patent publication US12582619B2 (priority 2020, dated 2026)
